According to the kinase profiling compilation of Christmann-Franck et al. (2016):

Legend:
Experiment in all cases: radiometric filter-binding kinase assay
[1] = biological target: MAPK11 (human) (UniProt Q15759)
[2] = biological target: SRC (human) (UniProt P12931)
[3] = biological target: RPS6KA3 KD1 KD2 (human) (UniProt P51812)
[4] = system: AKT2 (human), P31751 [S474D]
[5] = biological target: EPHA2 (human) (UniProt P29317)
[6] = biological target: MAP3K7 TAB1 (human) (UniProt Q15750+O43318)
MAP3K7 TAB1 (human), sequence (O43318 whole entry, looked up): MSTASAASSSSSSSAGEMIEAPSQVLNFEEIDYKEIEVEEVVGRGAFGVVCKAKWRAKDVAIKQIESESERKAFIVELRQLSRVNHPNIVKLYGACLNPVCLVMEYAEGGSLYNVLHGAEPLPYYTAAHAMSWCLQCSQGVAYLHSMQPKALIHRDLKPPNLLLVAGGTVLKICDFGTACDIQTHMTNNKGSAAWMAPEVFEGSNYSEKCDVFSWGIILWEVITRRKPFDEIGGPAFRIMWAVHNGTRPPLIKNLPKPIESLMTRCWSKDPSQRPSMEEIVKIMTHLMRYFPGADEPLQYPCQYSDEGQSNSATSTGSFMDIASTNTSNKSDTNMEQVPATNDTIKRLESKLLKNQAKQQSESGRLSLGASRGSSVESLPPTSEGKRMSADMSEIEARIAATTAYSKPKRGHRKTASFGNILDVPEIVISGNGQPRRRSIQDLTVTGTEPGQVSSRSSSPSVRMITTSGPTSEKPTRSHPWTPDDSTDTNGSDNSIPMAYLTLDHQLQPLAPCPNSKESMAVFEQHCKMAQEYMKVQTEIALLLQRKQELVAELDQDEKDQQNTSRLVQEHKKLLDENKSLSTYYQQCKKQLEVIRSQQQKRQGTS
MAP3K7 TAB1 (human), sequence (Q15750 whole entry, looked up): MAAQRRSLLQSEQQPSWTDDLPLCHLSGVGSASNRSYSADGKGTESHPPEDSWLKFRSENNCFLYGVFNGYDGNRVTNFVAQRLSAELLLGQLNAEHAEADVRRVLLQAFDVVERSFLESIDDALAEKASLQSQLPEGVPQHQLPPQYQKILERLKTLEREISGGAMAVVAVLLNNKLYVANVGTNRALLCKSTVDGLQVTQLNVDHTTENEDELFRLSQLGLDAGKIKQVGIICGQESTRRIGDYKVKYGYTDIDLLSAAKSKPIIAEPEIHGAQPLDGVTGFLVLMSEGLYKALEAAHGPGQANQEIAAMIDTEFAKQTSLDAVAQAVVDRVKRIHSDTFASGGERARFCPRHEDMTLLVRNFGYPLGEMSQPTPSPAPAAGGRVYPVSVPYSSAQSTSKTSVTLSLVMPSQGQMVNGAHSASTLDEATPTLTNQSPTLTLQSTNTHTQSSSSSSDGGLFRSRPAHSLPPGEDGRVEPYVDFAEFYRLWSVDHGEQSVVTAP

[7] = biological target: IRAK4 (human) (UniProt Q9NWZ3)
[8] = biological target: GSK3B (human) (UniProt P49841)
[9] = system: ROCK2 (rat); settings: accession and sequence are those of the human protein
[10] = biological target: TAOK1 (human) (UniProt Q7L7X3)
[11] = biological target: HIPK3 (human) (UniProt Q9H422)
HIPK3 (human), sequence (Q9H422 whole entry, looked up): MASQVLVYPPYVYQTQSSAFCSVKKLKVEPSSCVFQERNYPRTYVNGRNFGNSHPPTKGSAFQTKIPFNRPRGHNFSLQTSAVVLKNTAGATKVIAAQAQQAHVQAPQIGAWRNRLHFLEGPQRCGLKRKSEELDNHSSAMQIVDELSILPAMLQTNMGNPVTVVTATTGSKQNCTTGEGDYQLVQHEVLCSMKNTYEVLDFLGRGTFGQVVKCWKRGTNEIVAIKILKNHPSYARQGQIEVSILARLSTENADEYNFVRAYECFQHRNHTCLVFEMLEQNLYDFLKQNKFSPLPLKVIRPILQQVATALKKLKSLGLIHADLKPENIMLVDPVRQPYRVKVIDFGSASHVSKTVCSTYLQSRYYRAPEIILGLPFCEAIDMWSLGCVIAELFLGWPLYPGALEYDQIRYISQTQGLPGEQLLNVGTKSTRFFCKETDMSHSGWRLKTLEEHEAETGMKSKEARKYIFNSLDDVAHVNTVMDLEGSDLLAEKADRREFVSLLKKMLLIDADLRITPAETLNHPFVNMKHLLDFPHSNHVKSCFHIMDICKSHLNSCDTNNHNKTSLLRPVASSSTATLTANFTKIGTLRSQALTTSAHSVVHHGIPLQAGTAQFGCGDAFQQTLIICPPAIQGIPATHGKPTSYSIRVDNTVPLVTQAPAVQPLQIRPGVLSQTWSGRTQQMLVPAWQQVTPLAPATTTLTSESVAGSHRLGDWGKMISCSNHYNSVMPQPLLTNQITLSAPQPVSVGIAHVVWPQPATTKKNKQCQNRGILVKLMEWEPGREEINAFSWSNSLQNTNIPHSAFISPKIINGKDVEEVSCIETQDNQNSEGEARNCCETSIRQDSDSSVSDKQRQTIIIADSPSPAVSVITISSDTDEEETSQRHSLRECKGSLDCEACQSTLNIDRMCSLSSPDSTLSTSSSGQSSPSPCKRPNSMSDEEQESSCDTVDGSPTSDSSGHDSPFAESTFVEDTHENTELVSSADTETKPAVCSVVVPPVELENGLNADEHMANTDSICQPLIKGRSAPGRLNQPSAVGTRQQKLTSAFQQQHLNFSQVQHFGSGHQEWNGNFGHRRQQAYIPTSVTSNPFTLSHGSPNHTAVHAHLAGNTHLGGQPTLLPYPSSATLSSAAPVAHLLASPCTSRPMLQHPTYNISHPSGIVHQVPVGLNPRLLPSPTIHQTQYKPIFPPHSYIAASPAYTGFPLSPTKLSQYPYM

[12] = biological target: INSR (human) (UniProt P06213)
[13] = biological target: STK11 CAB39 STRADA (human) (UniProt Q9Y376+Q7RTN6+Q15831)
[14] = biological target: IGF1R (human) (UniProt P08069)
[15] = biological target: MAPKAPK5 (human) (UniProt Q8IW41)
[16] = biological target: FLT1 (human) (UniProt P17948)
[17] = biological target: MAPK14 (human) (UniProt Q16539)
[18] = biological target: CAMKK2 (human) (UniProt Q96RR4)
[19] = biological target: JAK2 JH1 JH2 (human) (UniProt O60674)
[20] = biological target: CSK (human) (UniProt P41240)
CSK (human), sequence (P41240 whole entry, looked up): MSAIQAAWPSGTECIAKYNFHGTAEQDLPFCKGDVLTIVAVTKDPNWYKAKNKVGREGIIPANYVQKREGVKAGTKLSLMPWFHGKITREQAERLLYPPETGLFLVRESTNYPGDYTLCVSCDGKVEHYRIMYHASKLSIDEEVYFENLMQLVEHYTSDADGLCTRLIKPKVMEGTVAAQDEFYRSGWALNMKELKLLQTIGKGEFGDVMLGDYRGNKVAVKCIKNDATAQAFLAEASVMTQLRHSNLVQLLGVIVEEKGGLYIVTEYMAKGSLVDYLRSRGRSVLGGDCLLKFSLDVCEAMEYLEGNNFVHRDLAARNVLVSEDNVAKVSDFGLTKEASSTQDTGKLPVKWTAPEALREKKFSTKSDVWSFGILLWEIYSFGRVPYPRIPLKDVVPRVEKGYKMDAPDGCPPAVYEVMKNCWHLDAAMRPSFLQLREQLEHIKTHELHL

[21] = biological target: RIPK2 (human) (UniProt O43353)
RIPK2 (human), sequence (O43353 whole entry, looked up): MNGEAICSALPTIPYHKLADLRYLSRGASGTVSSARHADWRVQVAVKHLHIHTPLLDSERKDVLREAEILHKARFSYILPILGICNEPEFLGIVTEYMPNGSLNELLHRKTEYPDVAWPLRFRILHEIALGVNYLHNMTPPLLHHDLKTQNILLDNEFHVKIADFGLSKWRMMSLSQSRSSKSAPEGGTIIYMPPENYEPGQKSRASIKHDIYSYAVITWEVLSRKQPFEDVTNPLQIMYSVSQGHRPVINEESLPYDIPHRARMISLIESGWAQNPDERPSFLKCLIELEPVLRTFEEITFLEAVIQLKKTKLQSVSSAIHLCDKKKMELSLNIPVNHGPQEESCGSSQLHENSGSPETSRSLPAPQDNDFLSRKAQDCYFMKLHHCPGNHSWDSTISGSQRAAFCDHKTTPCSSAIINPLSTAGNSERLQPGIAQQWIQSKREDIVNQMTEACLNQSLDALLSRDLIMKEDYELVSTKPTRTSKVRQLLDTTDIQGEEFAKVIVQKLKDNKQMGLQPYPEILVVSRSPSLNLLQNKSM

[22] = biological target: MINK1 (human) (UniProt Q8N4C8)
[23] = biological target: CLK2 (human) (UniProt P49760)
CLK2 (human), sequence (P49760 whole entry, looked up): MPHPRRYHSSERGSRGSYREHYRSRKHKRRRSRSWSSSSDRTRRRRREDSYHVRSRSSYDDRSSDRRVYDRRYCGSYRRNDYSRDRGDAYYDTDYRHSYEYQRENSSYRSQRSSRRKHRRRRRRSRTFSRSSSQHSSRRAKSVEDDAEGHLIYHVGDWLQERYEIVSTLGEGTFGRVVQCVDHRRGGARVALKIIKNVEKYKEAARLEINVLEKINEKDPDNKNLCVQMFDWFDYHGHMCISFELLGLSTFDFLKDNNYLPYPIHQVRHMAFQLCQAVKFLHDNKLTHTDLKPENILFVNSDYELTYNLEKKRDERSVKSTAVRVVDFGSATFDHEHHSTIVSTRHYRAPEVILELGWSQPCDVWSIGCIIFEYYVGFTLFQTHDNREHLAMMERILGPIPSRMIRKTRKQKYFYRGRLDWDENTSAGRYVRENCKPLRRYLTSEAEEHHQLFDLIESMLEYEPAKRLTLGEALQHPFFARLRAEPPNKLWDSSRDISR

[24] = biological target: FGFR1 (human) (UniProt P11362)
[25] = biological target: PRKCZ (human) (UniProt Q05513)
PRKCZ (human), sequence (Q05513 whole entry, looked up): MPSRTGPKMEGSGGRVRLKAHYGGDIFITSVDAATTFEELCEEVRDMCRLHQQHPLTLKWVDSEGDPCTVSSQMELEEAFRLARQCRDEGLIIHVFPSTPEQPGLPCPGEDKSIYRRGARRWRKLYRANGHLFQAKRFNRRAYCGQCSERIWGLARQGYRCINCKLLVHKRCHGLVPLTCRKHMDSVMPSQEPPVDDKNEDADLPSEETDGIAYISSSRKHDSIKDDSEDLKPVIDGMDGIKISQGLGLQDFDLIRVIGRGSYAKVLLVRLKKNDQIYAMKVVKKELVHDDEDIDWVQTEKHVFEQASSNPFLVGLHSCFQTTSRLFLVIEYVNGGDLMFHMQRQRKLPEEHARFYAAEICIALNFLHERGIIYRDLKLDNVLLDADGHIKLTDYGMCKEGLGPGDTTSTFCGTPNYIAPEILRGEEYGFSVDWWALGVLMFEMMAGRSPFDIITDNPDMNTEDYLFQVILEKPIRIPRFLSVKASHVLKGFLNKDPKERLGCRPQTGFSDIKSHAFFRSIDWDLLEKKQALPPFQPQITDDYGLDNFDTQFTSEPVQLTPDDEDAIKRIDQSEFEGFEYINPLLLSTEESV

[26] = biological target: MARK1 (human) (UniProt Q9P0L2)
[27] = biological target: CSNK1D (human) (UniProt P48730)
[28] = biological target: NTRK1 (human) (UniProt P04629)
[29] = biological target: BRSK1 (human) (UniProt Q8TDC3)
[30] = biological target: DYRK3 (human) (UniProt O43781)
[31] = biological target: MAPK15 (human) (UniProt Q8TD08)
[32] = biological target: HIPK1 (human) (UniProt Q86Z02)
[33] = system: LCK (mouse); settings: accession and sequence are those of the human protein
[34] = biological target: MELK (human) (UniProt Q14680)
[35] = biological target: MAP3K1 (human) (UniProt Q13233)

AKT2 (human), P31751 [S474D], sequence (P31751 whole entry S474D, looked up): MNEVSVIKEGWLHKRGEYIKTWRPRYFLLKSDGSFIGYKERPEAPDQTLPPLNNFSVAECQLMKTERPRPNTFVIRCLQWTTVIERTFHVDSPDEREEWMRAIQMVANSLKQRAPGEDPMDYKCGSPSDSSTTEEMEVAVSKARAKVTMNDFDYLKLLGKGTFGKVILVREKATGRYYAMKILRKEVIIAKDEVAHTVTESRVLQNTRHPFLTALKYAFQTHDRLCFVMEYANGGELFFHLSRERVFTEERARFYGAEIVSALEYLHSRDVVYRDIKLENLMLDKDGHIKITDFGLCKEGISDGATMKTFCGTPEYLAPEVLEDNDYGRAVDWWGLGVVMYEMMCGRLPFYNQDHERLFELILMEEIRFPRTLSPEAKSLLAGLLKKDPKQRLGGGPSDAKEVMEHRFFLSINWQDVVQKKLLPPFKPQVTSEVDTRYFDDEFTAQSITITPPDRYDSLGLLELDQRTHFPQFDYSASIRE

SMILES: O=C(N[C@@H](COc1ccc2[nH]c(=O)[nH]c2c1)c1ccccc1)c1cccn(Cc2ccc(F)c(F)c2)c1=O
- residual activity ([1]; compound 0.1 µM): 100%
- residual activity ([1]; compound 1.0 µM): 110%
- residual activity ([1]; compound 10.0 µM): 115%
- residual activity ([2]; compound 0.1 µM): 103%
- residual activity ([2]; compound 1.0 µM): 100%
- residual activity ([2]; compound 10.0 µM): 75%
- residual activity ([3]; compound 0.1 µM): 102%
- residual activity ([3]; compound 1.0 µM): 98%
- residual activity ([3]; compound 10.0 µM): 85%
- residual activity ([4]; compound 0.1 µM): 98%
- residual activity ([4]; compound 1.0 µM): 96%
- residual activity ([4]; compound 10.0 µM): 77%
- residual activity ([5]; compound 1.0 µM): 102%
- residual activity ([5]; compound 10.0 µM): 86%
- residual activity ([6]; compound 0.1 µM): 97%
- residual activity ([6]; compound 1.0 µM): 103%
- residual activity ([6]; compound 10.0 µM): 54%
- residual activity ([7]; compound 0.1 µM): 110%
- residual activity ([8]; compound 0.1 µM): 97%
- residual activity ([8]; compound 1.0 µM): 96%
- residual activity ([8]; compound 10.0 µM): 64%
- residual activity ([9]; compound 0.1 µM): 105%
- residual activity ([9]; compound 1.0 µM): 112%
- residual activity ([9]; compound 10.0 µM): 108%
- residual activity ([10]; compound 0.1 µM): 111%
- residual activity ([10]; compound 1.0 µM): 126%
- residual activity ([10]; compound 10.0 µM): 119%
- residual activity ([11]; compound 0.1 µM): 99%
- residual activity ([11]; compound 1.0 µM): 108%
- residual activity ([11]; compound 10.0 µM): 91%
- residual activity ([12]; compound 0.1 µM): 99%
- residual activity ([12]; compound 1.0 µM): 95%
- residual activity ([12]; compound 10.0 µM): 93%
- residual activity ([13]; compound 0.1 µM): 102%
- residual activity ([13]; compound 1.0 µM): 100%
- residual activity ([13]; compound 10.0 µM): 93%
- residual activity ([14]; compound 0.1 µM): 105%
- residual activity ([14]; compound 1.0 µM): 105%
- residual activity ([14]; compound 10.0 µM): 103%
- residual activity ([15]; compound 0.1 µM): 108%
- residual activity ([15]; compound 1.0 µM): 100%
- residual activity ([15]; compound 10.0 µM): 95%
- residual activity ([16]; compound 0.1 µM): 106%
- residual activity ([16]; compound 1.0 µM): 100%
- residual activity ([17]; compound 0.1 µM): 114%
- residual activity ([17]; compound 1.0 µM): 121%
- residual activity ([17]; compound 10.0 µM): 114%
- residual activity ([18]; compound 1.0 µM): 104%
- residual activity ([18]; compound 10.0 µM): 90%
- residual activity ([19]; compound 0.1 µM): 98%
- residual activity ([19]; compound 1.0 µM): 99%
- residual activity ([19]; compound 10.0 µM): 101%
- residual activity ([20]; compound 0.1 µM): 109%
- residual activity ([20]; compound 1.0 µM): 98%
- residual activity ([20]; compound 10.0 µM): 101%
- residual activity ([21]; compound 0.1 µM): 102%
- residual activity ([21]; compound 1.0 µM): 105%
- residual activity ([21]; compound 10.0 µM): 98%
- residual activity ([22]; compound 0.1 µM): 92%
- residual activity ([22]; compound 1.0 µM): 100%
- residual activity ([22]; compound 10.0 µM): 87%
- residual activity ([23]; compound 0.1 µM): 106%
- residual activity ([23]; compound 1.0 µM): 95%
- residual activity ([23]; compound 10.0 µM): 74%
- residual activity ([24]; compound 0.1 µM): 96%
- residual activity ([24]; compound 1.0 µM): 97%
- residual activity ([24]; compound 10.0 µM): 75%
- residual activity ([25]; compound 0.1 µM): 104%
- residual activity ([25]; compound 1.0 µM): 106%
- residual activity ([25]; compound 10.0 µM): 88%
- residual activity ([26]; compound 10.0 µM): 107%
- residual activity ([27]; compound 0.1 µM): 103%
- residual activity ([27]; compound 1.0 µM): 110%
- residual activity ([27]; compound 10.0 µM): 113%
- residual activity ([28]; compound 0.1 µM): 113%
- residual activity ([28]; compound 1.0 µM): 98%
- residual activity ([28]; compound 10.0 µM): 78%
- residual activity ([29]; compound 0.1 µM): 118%
- residual activity ([29]; compound 1.0 µM): 102%
- residual activity ([29]; compound 10.0 µM): 92%
- residual activity ([30]; compound 0.1 µM): 109%
- residual activity ([30]; compound 1.0 µM): 109%
- residual activity ([30]; compound 10.0 µM): 93%
- residual activity ([31]; compound 0.1 µM): 92%
- residual activity ([31]; compound 1.0 µM): 89%
- residual activity ([31]; compound 10.0 µM): 94%
- residual activity ([32]; compound 0.1 µM): 99%
- residual activity ([32]; compound 1.0 µM): 100%
- residual activity ([32]; compound 10.0 µM): 86%
- residual activity ([33]; compound 0.1 µM): 109%
- residual activity ([33]; compound 1.0 µM): 101%
- residual activity ([33]; compound 10.0 µM): 91%
- residual activity ([34]; compound 0.1 µM): 97%
- residual activity ([34]; compound 1.0 µM): 110%
- residual activity ([34]; compound 10.0 µM): 99%
- residual activity ([35]; compound 0.1 µM): 110%
- residual activity ([35]; compound 1.0 µM): 114%
- residual activity ([35]; compound 10.0 µM): 112%

SMILES: Cc1nc(-c2ccc(OCC(C)C)c(C#N)c2)sc1C(=O)O
- residual activity ([1]; compound 1.0 µM): 84%
- residual activity ([1]; compound 10.0 µM): 91%
- residual activity ([2]; compound 1.0 µM): 97%
- residual activity ([2]; compound 10.0 µM): 78%
- residual activity ([3]; compound 1.0 µM): 99%
- residual activity ([3]; compound 10.0 µM): 92%
- residual activity ([4]; compound 1.0 µM): 109%
- residual activity ([4]; compound 10.0 µM): 108%
- residual activity ([5]; compound 1.0 µM): 104%
- residual activity ([5]; compound 10.0 µM): 89%
- residual activity ([6]; compound 1.0 µM): 88%
- residual activity ([6]; compound 10.0 µM): 81%
- residual activity ([7]; compound 1.0 µM): 90%
- residual activity ([7]; compound 10.0 µM): 98%
- residual activity ([8]; compound 1.0 µM): 90%
- residual activity ([8]; compound 10.0 µM): 74%
- residual activity ([9]; compound 1.0 µM): 96%
- residual activity ([9]; compound 10.0 µM): 80%
- residual activity ([10]; compound 1.0 µM): 105%
- residual activity ([10]; compound 10.0 µM): 101%
- residual activity ([11]; compound 1.0 µM): 108%
- residual activity ([11]; compound 10.0 µM): 119%
- residual activity ([12]; compound 1.0 µM): 102%
- residual activity ([12]; compound 10.0 µM): 96%
- residual activity ([13]; compound 1.0 µM): 86%
- residual activity ([13]; compound 10.0 µM): 85%
- residual activity ([14]; compound 1.0 µM): 93%
- residual activity ([14]; compound 10.0 µM): 89%
- residual activity ([15]; compound 1.0 µM): 87%
- residual activity ([15]; compound 10.0 µM): 82%
- residual activity ([16]; compound 1.0 µM): 83%
- residual activity ([16]; compound 10.0 µM): 71%
- residual activity ([17]; compound 1.0 µM): 105%
- residual activity ([18]; compound 1.0 µM): 92%
- residual activity ([18]; compound 10.0 µM): 73%
- residual activity ([19]; compound 10.0 µM): 83%
- residual activity ([20]; compound 1.0 µM): 148%
- residual activity ([20]; compound 10.0 µM): 119%
- residual activity ([21]; compound 1.0 µM): 97%
- residual activity ([21]; compound 10.0 µM): 88%
- residual activity ([22]; compound 10.0 µM): 104%
- residual activity ([23]; compound 1.0 µM): 81%
- residual activity ([23]; compound 10.0 µM): 77%
- residual activity ([24]; compound 10.0 µM): 103%
- residual activity ([25]; compound 1.0 µM): 93%
- residual activity ([25]; compound 10.0 µM): 96%
- residual activity ([26]; compound 1.0 µM): 96%
- residual activity ([26]; compound 10.0 µM): 104%
- residual activity ([27]; compound 1.0 µM): 79%
- residual activity ([27]; compound 10.0 µM): 93%
- residual activity ([28]; compound 1.0 µM): 88%
- residual activity ([29]; compound 1.0 µM): 94%
- residual activity ([29]; compound 10.0 µM): 91%
- residual activity ([30]; compound 1.0 µM): 84%
- residual activity ([30]; compound 10.0 µM): 65%
- residual activity ([32]; compound 1.0 µM): 90%
- residual activity ([32]; compound 10.0 µM): 95%
- residual activity ([33]; compound 1.0 µM): 110%
- residual activity ([33]; compound 10.0 µM): 102%
- residual activity ([34]; compound 1.0 µM): 84%
- residual activity ([34]; compound 10.0 µM): 87%
- residual activity ([35]; compound 1.0 µM): 106%
- residual activity ([35]; compound 10.0 µM): 96%
